# From publication PMC9613624 (Journal of medicinal chemistry, 2022)
# “Also recorded” adds a separate entry of the source.
# Legend:
# AKT [1] = experiment: Western blotting of T-AKT in SW620 cells; type: cell-based; settings: for T-AKT level (western blot verification for proteomics, in words): 18 h, Figure S4; for effect on AKT protein levels at high concentrations (in words): concentrations up to 10 μM
# P-PRAS40 = experiment: Western blotting of P-PRAS40 in SW620 cells; settings: 1 μM; for P-PRAS40 inhibition (western blot verification for proteomics, in words): 18 h, Figure S4
# AKT [2] = experiment: Western blotting of total AKT; type: cell-based; settings: PC3 cells, 1 μM, 24 h
# [3] = tested on: P-AKT (S473), P-PRAS40 (T246), P-S6 (S240/244); experiment: Western blotting of downstream signaling in PC3 cells; type: cell-based; settings: 1 μM, 24 h
# AKT [4] = experiment: Western blotting of T-AKT in PANC-1 cells; type: cell-based; settings: 24 h
# SW620 cells [5] = experiment: Colony formation assay in SW620 cells; type: cell-based; settings: 2 weeks, crystal violet
# SW620 cells [6] = experiment: Cell death monitoring with DRAQ7 in SW620 cells; type: cell-based; settings: 5 μM, DRAQ7, 0-72 h
# AKT2 [7] = target: T1, AKT2 (Homo sapiens, UniProt P31751); experiment: Western blotting of AKT isoforms in SW620 cells; type: cell-based; settings: Figure S3
# T1 sequence (P31751 whole entry, canonical isoform): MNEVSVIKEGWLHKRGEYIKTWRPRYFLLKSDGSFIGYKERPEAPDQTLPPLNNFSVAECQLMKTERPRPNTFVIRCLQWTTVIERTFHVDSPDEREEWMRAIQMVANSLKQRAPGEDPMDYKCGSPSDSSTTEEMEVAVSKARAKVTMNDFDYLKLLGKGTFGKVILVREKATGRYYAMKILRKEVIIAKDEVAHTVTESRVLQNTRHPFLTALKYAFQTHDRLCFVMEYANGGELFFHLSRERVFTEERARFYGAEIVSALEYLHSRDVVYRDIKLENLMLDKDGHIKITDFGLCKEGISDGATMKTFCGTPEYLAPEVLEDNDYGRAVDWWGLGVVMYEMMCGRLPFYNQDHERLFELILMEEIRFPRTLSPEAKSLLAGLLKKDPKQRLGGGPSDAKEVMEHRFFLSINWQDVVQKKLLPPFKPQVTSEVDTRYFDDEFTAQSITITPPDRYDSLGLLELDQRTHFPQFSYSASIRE
# AKT [8] = experiment: Western blotting of T-AKT in Mia PaCa-2 cells; type: cell-based; settings: Mia PaCa-2 cells (KRAS mutant), Figure S2A
# AKT2 [9] = target: T1, AKT2; experiment: Global TMT MS-based quantitative proteomic study in SW620 cells; type: cell-based; settings: 1 μM, 18 h, 62 compared to 63
# AKT1 [10] = target: T2, AKT1 (Homo sapiens, UniProt P31749); experiment: as above; type: cell-based; settings: 1 μM, 18 h, approximately 6433 proteins detected
# T2 sequence (P31749 whole entry, canonical isoform): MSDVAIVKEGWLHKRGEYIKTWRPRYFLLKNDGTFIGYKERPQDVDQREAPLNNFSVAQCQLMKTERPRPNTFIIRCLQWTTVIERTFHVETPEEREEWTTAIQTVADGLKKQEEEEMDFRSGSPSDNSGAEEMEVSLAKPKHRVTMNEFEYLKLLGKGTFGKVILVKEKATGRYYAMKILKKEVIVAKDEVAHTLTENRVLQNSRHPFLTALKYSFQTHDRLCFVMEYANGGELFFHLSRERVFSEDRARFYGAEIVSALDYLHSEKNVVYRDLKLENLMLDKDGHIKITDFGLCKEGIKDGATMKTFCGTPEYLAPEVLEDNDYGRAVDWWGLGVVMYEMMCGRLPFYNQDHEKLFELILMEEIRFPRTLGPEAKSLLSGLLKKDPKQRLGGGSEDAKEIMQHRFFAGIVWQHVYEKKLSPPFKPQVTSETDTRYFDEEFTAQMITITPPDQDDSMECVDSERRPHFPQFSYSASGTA
# AKT1 [11] = target: T2, AKT1; experiment: Western blotting of AKT isoforms in SW620 cells; type: cell-based; settings: Figure S3
# [12] = Mouse pharmacokinetic study; type: in vivo, male Swiss Albino mice; settings: mice, single IP dose 75 mg/kg
# AKT [13] = experiment: Western blotting of T-AKT in HT-29 cells; type: cell-based; settings: HT-29 cells (BRAF mutant), 1 μM, 24 h
# AKT [14] = experiment: Western blotting of T-AKT in Colo205 cells; type: cell-based; settings: Colo205 cells (BRAF mutant), 1 μM, 24 h
# AKT [15] = experiment: Western blotting of T-AKT in SKMEL 239 cells; type: cell-based; settings: SKMEL 239 cells (BRAF mutant), 1 μM, 24 h
# [16] = PANC-1 cells (KRAS mutant), 1 μM
compound,measurement,setting,value
"Cc1ncsc1-c1ccc([C@H](C)NC(=O)[C@H]2C[C@H](O)CN2C(=O)[C@@H](NC(=O)CCCCCCCCCCNC(=O)CCc2cccc(-c3ccc4nc(-c5cccnc5N)n(-c5ccc(C6(N)CCC6)cc5)c4n3)c2)C(C)(C)C)cc1 [Compound 63, (2R,4S)-1-((S)-2-(11-(3-(3-(3-(4-(1-Aminocyclobutyl)phenyl)-2-(2-aminopyridin-3-yl)-3H-imidazo[4,5-b]pyridin-5-yl)phenyl)propanamido)undecanamido)-3,3-dimethylbutanoyl)-4-hydroxy-N-((S)-1-(4-(4-methylthiazol-5-yl)phenyl)ethyl)pyrrolidine-2-carboxamide]","T-AKT level (western blot verification for proteomics, in words)","AKT [1]; SW620 cells, 1 μM",no effect
same,effect on AKT protein levels at high concentrations (in words),"AKT [1]; SW620 cells, 24 h",no effect
same,"P-PRAS40 inhibition (western blot verification for proteomics, in words)",P-PRAS40,no effect
"Cc1ncsc1-c1ccc(CNC(=O)[C@@H]2C[C@@H](O)CN2C(=O)[C@@H](NC(=O)CCCCCCCCCC(=O)NCCc2cccc(-c3ccc4nc(-c5cccnc5N)n(-c5ccc(C6(N)CCC6)cc5)c4n3)c2)C(C)(C)C)cc1 [Compound 49, N^1-(3-(3-(4-(1-Aminocyclobutyl)phenyl)-2-(2-aminopyridin-3-yl)-3H-imidazo[4,5-b]pyridin-5-yl)phenethyl)-N^11-((S)-1-((2S,4R)-4-hydroxy-2-((4-(4-methylthiazol-5-yl)benzyl)carbamoyl)pyrrolidin-1-yl)-3,3-dimethyl-1-oxobutan-2-yl)undecanediamide]","T-AKT protein level / AKT degradation (western blot, in words)",AKT [2],particularly effective in T-AKT degradation; also recorded: highly effective AKT degraders
same,"downstream signaling inhibition (P-AKT, P-PRAS40, P-S6; western blot, in words)",[3],particularly effective
"Cc1ncsc1-c1ccc(CNC(=O)[C@@H]2C[C@@H](O)CN2C(=O)[C@@H](NC(=O)CCCCCCCC(=O)NCCc2cccc(-c3ccc4nc(-c5cccnc5N)n(-c5ccc(C6(N)CCC6)cc5)c4n3)c2)C(C)(C)C)cc1 [Compound 47, N^1-(3-(3-(4-(1-Aminocyclobutyl)phenyl)-2-(2-aminopyridin-3-yl)-3H-imidazo[4,5-b]pyridin-5-yl)phenethyl)-N^9-((S)-1-((2S,4R)-4-hydroxy-2-((4-(4-methylthiazol-5-yl)benzyl)carbamoyl)pyrrolidin-1-yl)-3,3-dimethyl-1-oxobutan-2-yl)nonanediamide]","T-AKT protein level / AKT degradation (western blot, in words)",AKT [2],particularly effective in T-AKT degradation
same,"downstream signaling inhibition (P-AKT, P-PRAS40, P-S6; western blot, in words)",[3],particularly effective
"Nc1ncccc1-c1nc2ccc(-c3ccccc3)nc2n1-c1ccc(C2(N)CCC2)cc1 [ARQ-092, 3-(3-(4-(1-Aminocyclobutyl)phenyl)-5-phenyl-3H-imidazo[4,5-b]pyridin-2-yl)pyridin −2-amine, reference compound]",phosphorylation of PRAS40 in time-course study (in words),P-PRAS40; up to 24 h,potently inhibited
"Cc1ncsc1-c1ccc(CNC(=O)[C@@H]2C[C@@H](O)CN2C(=O)[C@@H](NC(=O)CCCCCCCCCC(=O)N2CCN(CC[C@H](NC(=O)C3(N)CCN(c4ncnc5[nH]ccc45)CC3)c3ccc(Cl)cc3)CC2)C(C)(C)C)cc1 [MS21, reference compound]",T-AKT degradation (in words),AKT [4]; [16],unable to reduce the AKT protein level
same,T-AKT degradation (in words),"AKT [1]; SW620 cells, indicated concentrations, 24 h, Figure 7E",largely ineffective
same,inhibition of colony formation (in words),SW620 cells [5],no effect
"Cc1ncsc1-c1ccc([C@H](C)NC(=O)[C@@H]2C[C@@H](O)CN2C(=O)[C@@H](NC(=O)CCCCCCCCCCNC(=O)CCc2cccc(-c3ccc4nc(-c5cccnc5N)n(-c5ccc(C6(N)CCC6)cc5)c4n3)c2)C(C)(C)C)cc1 [Compound 62, (2S,4R)-1-((S)-2-(11-(3-(3-(3-(4-(1-Aminocyclobutyl)phenyl)-2-(2-aminopyridin-3-yl)-3H-imidazo[4,5-b]pyridin-5-yl)phenyl)propanamido)undecanamido)-3,3-dimethylbutanoyl)-4-hydroxy-N-((S)-1-(4-(4-methylthiazol-5-yl)phenyl)ethyl)pyrrolidine-2-carboxamide]",induction of cell apoptosis / percent cell death (in words),SW620 cells [6],most effectively
same,T-AKT degradation (in words),AKT [4]; [16],near-complete AKT degradation
same,T-AKT degradation (in words),"AKT [4]; PANC-1 cells, 100 nM",complete degradation
same,T-AKT degradation at high concentrations (in words),"AKT [4]; PANC-1 cells, concentrations up to 10 μM",no “hooker effect” was observed
same,"AKT2 degradation (western blot, in words)",AKT2 [7],potently induced
same,"T-AKT degradation (western blot, in words)",AKT [8],modestly induced AKT degradation
same,AKT2 protein level in TMT proteomics (in words),AKT2 [9],also reduced
same,AKT1 protein level in TMT proteomics (in words),AKT1 [10],reduced significantly
same,proteome-wide degradation selectivity (in words),AKT1 [10],generally selective AKT degrader
same,"AKT1 degradation (western blot, in words)",AKT1 [11],potently induced
same,clinical signs during the PK study,[12],No clinical signs were observed
same,plasma concentrations,[12]; maintained for at least 12 h,above 100 nM
same,"T-AKT degradation (western blot, in words)","AKT [1]; SW620 cells (KRAS mutant), Figure S2",effectively and completely depleted T-AKT; also recorded: much more effective than MS21
same,T-AKT degradation (in words),"AKT [1]; SW620 cells, 30 nM, 24 h",substantial T-AKT depletion
same,T-AKT degradation (in words),"AKT [1]; SW620 cells, 100 nM, 24 h",nearly complete AKT degradation
same,"T-AKT level (western blot verification for proteomics, in words)","AKT [1]; SW620 cells, 1 μM",significantly reduced
same,T-AKT degradation in time-course study (in words),"AKT [1]; SW620 cells, 1 μM, at 4 h",Significant AKT degradation
same,T-AKT degradation in time-course study (in words),"AKT [1]; SW620 cells, 1 μM, at 12 h, maintained for at least another 12 h",Near complete AKT degradation
same,T-AKT protein level in time-course study (in words),"AKT [1]; SW620 cells, 1 μM, up to 24 h",time-dependently reduced T-AKT protein levels
same,effect on AKT protein levels at high concentrations (in words),"AKT [1]; SW620 cells, 24 h",no “hooker effect” was observed
same,DC50,"AKT [1]; read-out: DC50, T-AKT degradation, SW620 cells, 24 h, western blot",23 ± 16 nM
same,"P-PRAS40 inhibition (western blot verification for proteomics, in words)",P-PRAS40,inhibited
same,inhibition of colony formation (in words),SW620 cells [5],significantly inhibited colony formation
same,T-AKT degradation (in words),AKT [13],more effective than MS21
same,T-AKT degradation (in words),AKT [14],more effective than MS21
same,T-AKT degradation (in words),AKT [15],more effective than MS21
"Cc1ncsc1-c1ccc(CNC(=O)[C@@H]2C[C@@H](O)CN2C(=O)[C@@H](NC(=O)CCOCCOCCOCCOCCOCCC(=O)NCCc2cccc(-c3ccc4nc(-c5cccnc5N)n(-c5ccc(C6(N)CCC6)cc5)c4n3)c2)C(C)(C)C)cc1 [Compound 41, N^1-(3-(3-(4-(1-Aminocyclobutyl)phenyl)-2-(2-aminopyridin-3-yl)-3H-imidazo[4,5-b]pyridin-5-yl)phenethyl)-N^19-((S)-1-((2S,4R)-4-hydroxy-2-((4-(4-methylthiazol-5-yl)benzyl)carbamoyl)pyrrolidin-1-yl)-3,3-dimethyl-1-oxobutan-2-yl)-4,7,10,13,16-pentaoxanonadecanediamide]","T-AKT protein level / AKT degradation (western blot, in words)",AKT [2],restored effective AKT degradation activity
"Cc1ncsc1-c1ccc(CNC(=O)[C@@H]2C[C@@H](O)CN2C(=O)[C@@H](NC(=O)CCCCCCCCC(=O)NCCc2cccc(-c3ccc4nc(-c5cccnc5N)n(-c5ccc(C6(N)CCC6)cc5)c4n3)c2)C(C)(C)C)cc1 [Compound 48, N^1-(3-(3-(4-(1-Aminocyclobutyl)phenyl)-2-(2-aminopyridin-3-yl)-3H-imidazo[4,5-b]pyridin-5-yl)phenethyl)-N^10-((S)-1-((2S,4R)-4-hydroxy-2-((4-(4-methylthiazol-5-yl)benzyl)carbamoyl)pyrrolidin-1-yl)-3,3-dimethyl-1-oxobutan-2-yl)decanediamide]","T-AKT protein level / AKT degradation (western blot, in words)",AKT [2],particularly effective in T-AKT degradation; also recorded: highly effective AKT degraders
same,"downstream signaling inhibition (P-AKT, P-PRAS40, P-S6; western blot, in words)",[3],particularly effective
"Cc1ncsc1-c1ccc(CNC(=O)[C@@H]2C[C@@H](O)CN2C(=O)[C@@H](NC(=O)CCNC(=O)CCc2cccc(-c3ccc4nc(-c5cccnc5N)n(-c5ccc(C6(N)CCC6)cc5)c4n3)c2)C(C)(C)C)cc1 [Compound 12, (2S,4R)-1-((S)-2-(3-(3-(3-(3-(4-(1-Aminocyclobutyl)phenyl)-2-(2-aminopyridin-3-yl)-3H-imidazo[4,5-b]pyridin-5-yl)phenyl)propanamido)propanamido)-3,3-dimethylbutanoyl)-4-hydroxy-N-(4-(4-methylthiazol-5-yl)benzyl)pyrrolidine-2-carboxamide]","T-AKT protein level / AKT degradation (western blot, in words)",AKT [2],completely inactive
